Data taken from patent US20110318380A1, “MHC Multimers in Cancer Vaccines and Immune Monitoring” (priority 2008, published 2011).
Read-outs that look alike come from different tables or passages of the source.

Columns and labels:
[1] = target: Bcl-X(L)173-182 specific CD8 T cells in PBL from a breast cancer patient; assay: flow cytometry of PBL ex vivo, APC dextramer with 7-AAD, CD3 and CD8; compared with an HIV specific dextramer as negative control
[2] = target: purified folded MHC-complex (Example 37)
T2 cells = conditions: cited from earlier work
[3] = tested on: PBL from a breast cancer patient; conditions: with vs without peptide; in doublets; cited from earlier work

## dextramer complex HLA-A2/Bcl-X(L)173-182-APC (from UniProt P61769 21-119) (peptide-MHC)
[1]
  level of dextramer positive CD-8 cells in the patient sample: 0.03%

## W6/32 mouse-anti-HLA-ABC antibody (Dako M0736)
[2]
  OD450 ratio to the negative control β2m: > 6 fold

## YLNDHLEPWI (listed as Homo Sapiens)
T2 cells; Clone 7, 13, 15, 17, and 18
  lysis of peptide-pulsed T2 cells: did not show specific lysis
T2 cells; Clone 8, 9, 10, 11, and 12
  lysis of peptide-pulsed T2 cells: effectively lysed
T2 cells; clone 9, E:T ratio 1:1
  cell lysis of T2 cells pulsed with different concentrations of peptide: significant even at low concentrations
T2 cells; clone 9, specific vs irrelevant peptide, three E:T ratios
  cell lysis of peptide-pulsed T2 cells: necessary to get killing of the target cell
[3]
  number of spots (IFN-gamma producing T-cells): clearly shows the presence of BclX(L) specific T-cells

## GLQHWVPEL (Irrelevant peptide) [BA4697-105, irrelevant peptide loaded on T2 target cells, reference compound]
T2 cells; Clone 8, 9, 10, 11, and 12
  lysis of peptide-pulsed T2 cells: without killing
